A short description of data set [1]: small animal PET/CT scan of two strains of mice (summary statement). Type of data set: in vivo, mice (ICR and C57BL/6). To be noted: ICR and C57BL/6 mice. The source says:
is successfully substituted with ^18F atom, and a fluorine-substituted thiamine (Formula I) and a hydrobromide thereof (Formula II) are synthesized. Subsequently, the present inventors scan two strains of mice (ICR and C57BL/6) using the small animal PET/CT.

The nature of data set [2]: PET/CT scan of ICR mice with ^18F substituted thiamine as tracer, whole brain ROI (SUV, TAC). Type of data set: in vivo. From the text:
1. Experiments on Scanning of ICR Mice by Using ^18F Substituted Thiamine as a PET/CT Tracer.
(§1) 1.1. Experimental Drug: ^18F Substituted Thiamine (Synthesized and Identified as in Example 1).
1.2. Animals and treatments: 8-week-old ICR mice, SPF grade, purchased from Shanghai SLAC Laboratory Animal Co., Ltd, were housed in a barrier environment and assigned to a treatment group and a control group randomly. The animals in the treatment group were fed with thiamine deficient diet (n=3), and the animals in the control group were fed with normal diet (n=3). After 28 days, PET/CT scan of the mice was performed.
1.3. PET/CT scan of the mice: small animal PET/CT scanner (Inveon, Siemens) thickness of PET layer: 0.78 mm, 128*128 matrix, energy window: 350-650 kev, CT tube current: 500 uA, tube voltage: 80 kv; scan mode: dynamic scan; scan time: 90 min.
1.4. Processing of PET/CT image: After the acquisition, the images were reconstructed with two iterations of 3D OSEM. The whole brain was delimited as the region of interest (ROI) by the image processing software coming with the Inveon small animal PET/CT scanner. The Standard uptake value (SUV) and TAC within 90 min were calculated.

Data set [3] in a line: PET/CT scan of C57BL/6 mice with ^18F substituted thiamine as tracer, whole brain ROI (SUV, TAC). The format is in vivo.
From the text: 1. Experiments on Scanning of C57BL/6 Mice by Using ^18F Substituted Thiamine as a PET/CT Tracer.
as §1
1.2. Animals and treatments: 8-week-old C57BL/6 mice, SPF grade, purchased from Shanghai SLAC Laboratory Animal Co., Ltd, were housed in a barrier environment and assigned to a treatment group and a control group, randomly. The animals in the treatment group were fed with thiamine deficient diet (n=2), and the animals in the control group were fed with normal diet (n=3). After 28 days, PET/CT scan of the mice was performed.
1.3. PET/CT scan of the mice: Small animal PET/CT scanner (Inveon, Siemens), thickness of PET layer: 0.78 mm, 128*128 matrix, energy window: 350-650 kev, CT tube current: 500 uA, tube voltage: 80 kv; scan mode: dynamic scan; scan time: 90 min.
1.4. Processing of PET/CT image: After the acquisition, the images were reconstructed with two iterations of 3D OSEM. The whole brain was delimited as the region of interest (ROI) by the image processing software coming with the Inveon small animal PET/CT scanner. The SUV and TAC within 90 min were calculated.

Data set [4] in a line: PET/CT scan of ICR mice with ^18F substituted thiamine as tracer, whole brain ROI (SUV, TAC). Type of data set: in vivo. To be noted: control group ICR mice (normal diet), two mice.

SMILES strings stand for the structures. Several values for one entry are separate records, joined by “and”; a condition that tells them apart may be missing. Equal values may be shown once.

In the case of `Br.Cc1ncc(C[n+]2csc(CC[18F])c2C)c(N)n1.[Br-]` [^18F substituted thiamine hydrobromide], the “uptake in the brain of thiamine-deficient model mice versus control mice” value in data set [1] is on record as “significantly higher”. In addition, in data set [1] (small animal PET/CT), the blood-brain barrier penetration entry is recorded as “successfully penetrates the blood-brain barrier”.

`Cc1ncc(C[n+]2csc(CC[18F])c2C)c(N)n1` [^18F substituted thiamine, 3-[(4-Amino-2-methylpyrimidin-5-yl)methyl]-5-(2-fluoroethyl)-4-methylthiazolium]: the “uptake in the brains of thiamine-deficient group versus control (images)” value in data set [2] (ICR mice, FIGS. 8 and 9) is recorded as “obviously increased”. Also, the “SUV value at peak of absorption in the brain” value in data set [2] (thiamine-deficient group ICR mice, individual mice) is 0.98 and 0.97 and 0.61. Further, the “time of peak of absorption in the brain” value in data set [2] (thiamine-deficient group ICR mice, individual mice, 90 min dynamic scan) is 22.5 min and 35 min and 65 min. In addition, in data set [3] (C57BL/6 mice, FIGS. 12 and 13), the “uptake in the brains of thiamine-deficient mice versus control (images)” value is “obviously increased”. Further, the “SUV value at absorption peak in the brain” value in data set [3] (control group C57BL/6 mice (normal diet), individual mice) was 0.17 and 0.25 and 0.3; in data set [4], 0.18 and 0.36. For the same compound, the “SUV value at peak of accumulation in the brain” value in data set [3] (thiamine-deficient group C57BL/6 mice, individual mice, at 90 min) is 0.48 and 0.55. For the same compound, the “time of peak of accumulation in the brain” value in data set [3] (thiamine-deficient group C57BL/6 mice, two mice, rose continuously over 90 min) came out at 90 min. In addition, in data set [4], the “time of absorption peak in the brain” value is on record as “about 20 min”.
